In ChEMBL document CHEMBL1134954, “Synthesis and preliminary evaluation of trans-3,4-conformationally-restricted glutamate and pyroglutamate analogues as novel EAAT2 inhibitors” (2002):

Assays:
Assay type in all cases: functional
Set-up in all cases: scale not given: the % may be the effect or the level left
[1] = tested on: SNB-19; test: Inhibitory activity (500 uM) against Cl-dependent uptake of [3H]L-glutamate (100 uM) into SNB-19 human astrocytoma cells to determine activity at system Xc glutamate/cystine exchanger
[2] = species: Rattus norvegicus; test: Potential inhibitory activity of EAAT2 by the ability (250 uM) to attenuate the Na-dependent uptake of [3H]D-aspartate (5 uM) into synaptosomes of rat forebrain; details: Brain
[3] = species: Rattus norvegicus; test: Inhibitory activity (250 uM) against ATP dependent uptake of [3H]L-glutamate (250 uM) by isolated synaptic vesicles from rat forebrain to quantify activity at vesicular glutamate transporter
[4] = Potential inhibitory activity of EAAT3 by the ability (500 uM) to attenuate the Na-dependent uptake of [3H]D-aspartate (25 uM) into C6 rat glioma cells

Structure (SMILES) | Activity [1] [%] | Activity [2] [%] | Activity [3] [%] | Activity [4] [%]
CC1=C(C)C[C@H]2C(C(=O)O)NC(=O)[C@@H]2C1 (stereo partly specified) | 103 | 77 | 96 | 97
CC(C)[C@H]1CN[C@H](C(=O)O)[C@H]1CC(=O)O |  | 22 |  | 
NC(C(=O)O)[C@@H]1C2C=CC(C2)[C@H]1C(=O)O (stereo partly specified) | 88 | 35 | 93 | 87
O=C(O)C1NC(=O)[C@@H]2CC=CC[C@@H]12 (stereo partly specified) | 89 | 53 | 103 | 93
NC(C(=O)O)[C@@H]1C2C=CC(CC2)[C@H]1C(=O)O (stereo partly specified) | 88 | 70 | 104 | 97
N[C@@H](CCC(=O)O)C(=O)O |  | 28 |  | 
NC(C(=O)O)[C@@H]1CC=CC[C@H]1C(=O)O (stereo partly specified) | 101 | 38 | 85 | 95
CC1=C(C)C[C@@H](C(N)C(=O)O)[C@H](C(=O)O)C1 (stereo partly specified) | 104 | 71 | 99 | 100
